From patent publication US20060264460A1 (Wyeth, priority 2005, published 2006)

What follows are molecules tested against T1, human Cot/Tpl2 kinase (Homo sapiens, UniProt P41279) (assay: Tpl2/Cot kinase assay: GST-MEK1 phosphorylation detected by ELISA (DELFIA Eu)). Conditions: 0.4 nM Tpl2, 35 nM GST-MEK1, 50 uM ATP, 1 h at 30° C.
T1 construct: human Cot/Tpl2 kinase construct encoding residues 30-398; 6His (N); made in house; host or cells: Sf9 insect cells, baculovirus system (BD Biosciences)
Assay type: biochemical
Method: Sf9 cells expressing the kinase were lysed in 50 mM NaPhosphate pH=8; 300 mM NaCl; 5 mM imidazole; 0.1 mM EGTA; 25 mM beta-glycerophosphate; 1% TX-100, 1% glycerol; 6 mM beta-mercaptoethanol and protease inhibitors. The lysate was clarified by centrifugation and was loaded onto a Ni-Sepharose column. The column was washed with 50 mM NaPhosphate pH=8; 300 mM NaCl; 15 mM imidazole; 1% glycerol; and 6 mM beta-mercaptoethanol. His-Tpl2 was eluted with 50 mM NaPhosphate pH=8; 300 mM NaCl; 250 mM imidazole; 1% glycerol; and 6 mM beta-mercaptoethanol. The eluted protein was further purified by size exclusion chromatography. Fractions corresponding to monomeric Tpl2 were then used in the assay.
Tpl2/Cot activity was directly assayed using GST-MEK1 as a substrate. GST-MEK1 phosphorylation on serine residues 217 and 221 was detected by ELISA. 0.4 nM Tpl2 was incubated with 35 nM GST-MEK1 in a kinase reaction buffer containing 20 mM MOPS pH=7.2; 50 uM ATP; 20 mM MgCl2; 1 mM DTT; 25 mM β-glycerophosphate; 5 mM EGTA; and 1 mM sodium orthovanadate for 1 h at 30° C. The compounds of the inventions solubilized in 100% DMSO were pre-diluted in assay buffer so that the final concentration of DMSO in the reaction was 1%. The kinase reaction was carried out in 100 ul volume on 96 well plates. The kinase reaction was then stopped with the addition of 100 mM EDTA. […] After a 1 hour incubation at room temperature, the detection plate was washed 4 times with TBST (TBS+0.05% Tween 20) and then incubated for another hour at room temperature with anti phospho-MEK1 antibody (Cell Signaling) 1:1000 in 10 mM MOPS 7.5; 150 mM NaCl; 0.05% Tween 20; 0.1% Gelatin; 0.02% NaN3; and 1% BSA. The detection plate was washed again and incubated for 30 min with DELFIA Europium (Eu) labeled goat anti-rabbit IgG (Perkin-Elmer), 1:4000 in the same buffer used for the primary incubation. After a final wash, Eu detection solution was added to each well and the Eu signal was measured in a Wallac Victor^2 Multilabel Counter. IC50 calculations were performed using the XLfit software package (IDBS, Guildford, UK).

T1 sequence (P41279 30-398): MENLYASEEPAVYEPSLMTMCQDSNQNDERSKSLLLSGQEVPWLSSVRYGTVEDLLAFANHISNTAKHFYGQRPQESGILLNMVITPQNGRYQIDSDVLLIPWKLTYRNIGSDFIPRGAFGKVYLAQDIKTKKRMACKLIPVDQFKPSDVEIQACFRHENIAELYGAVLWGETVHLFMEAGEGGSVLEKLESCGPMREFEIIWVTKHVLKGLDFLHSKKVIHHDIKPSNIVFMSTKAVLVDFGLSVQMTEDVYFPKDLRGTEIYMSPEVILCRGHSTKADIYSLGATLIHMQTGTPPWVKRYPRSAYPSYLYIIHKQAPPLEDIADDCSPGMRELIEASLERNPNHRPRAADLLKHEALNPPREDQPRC

Molecule | IC50 [nM]
1-[(3-chloro-4-fluorophenyl)amino]-5-[(1E)-3-hydroxyprop-1-en-1-yl]-7-[(1H-imidazol-5-ylmethyl)amino]-2-naphthonitrile [Example 313] | 230
4-(3-Chloro-4-fluoro-phenylamino)-6-[(tetrahydro-furan-2-ylmethyl)-amino]-quinoline-3-carbonitrile [Example 41] | 2200
N#Cc1cnc2ccc(NC(=O)c3ccccc3)cc2c1Nc1ccc(F)c(Cl)c1 [Example 1, N-[4-(3-Chloro-4-fluoro-phenylamino)-3-cyano-quinolin-6-yl]-benzamide] | 11000
N#Cc1cnc2ccc(NC(=O)c3cccnc3)cc2c1Nc1ccc(F)c(Cl)c1 [Example 2, N-[4-(3-Chloro-4-fluoro-phenylamino)-3-cyano-quinolin-6-yl]-nicotinamide] | 23900
N#Cc1cnc2ccc(NCc3ccco3)cc2c1Nc1ccc(F)c(Cl)c1 [Example 3, 4-(3-Chloro-4-fluoro-phenylamino)-6-[(furan-2-ylmethyl)-amino]-quinoline-3-carbonitrile] | 240
N#Cc1cnc2ccc(NCc3ccoc3)cc2c1Nc1ccc(F)c(Cl)c1 [Example 5, 4-(3-Chloro-4-fluoro-phenylamino)-6-[(furan-3-ylmethyl)-amino]-quinoline-3-carbonitrile] | 370
N#Cc1cnc2ccc(NCc3cccc([N+](=O)[O-])c3)cc2c1Nc1ccc(F)c(Cl)c1 [Example 6, 4-(3-Chloro-4-fluoro-phenylamino)-6-(3-nitro-benzylamino)-quinoline-3-carbonitrile] | 200
Cn1c(CNc2ccc3ncc(C#N)c(Nc4ccc(F)c(Cl)c4)c3c2)nc2ccccc21 [Example 7, 4-(3-Chloro-4-fluoro-phenylamino)-6-[(1-methyl-1H-benzoimidazol-2-ylmethyl)-amino]-quinoline-3-carbonitrile] | 18
N#Cc1cnc2ccc(NCc3nccs3)cc2c1Nc1ccc(F)c(Cl)c1 [Example 8, 4-(3-Chloro-4-fluoro-phenylamino)-6-[(thiazol-2-ylmethyl)-amino]-quinoline-3-carbonitrile] | 31
N#Cc1cnc2ccc(NCc3ccc(CO)o3)cc2c1Nc1ccc(F)c(Cl)c1 [Example 9, 4-(3-Chloro-4-fluoro-phenylamino)-6-[(5-hydroxymethyl-furan-2-ylmethyl)-amino]-quinoline-3-carbonitrile] | 211
N#Cc1cccc(CNc2ccc3ncc(C#N)c(Nc4ccc(F)c(Cl)c4)c3c2)c1 [Example 10, 4-(3-Chloro-4-fluoro-phenylamino)-6-(3-cyano-benzylamino)-quinoline-3-carbonitrile] | 200
N#Cc1cnc2ccc(NCc3ccc([N+](=O)[O-])o3)cc2c1Nc1ccc(F)c(Cl)c1 [Example 11, 4-(3-Chloro-4-fluoro-phenylamino)-6-[(5-nitro-furan-2-ylmethyl)-amino]-quinoline-3-carbonitrile] | 123
N#Cc1cnc2ccc(NCc3ccc(-n4ccnc4)cc3)cc2c1Nc1ccc(F)c(Cl)c1 [Example 12, 4-(3-Chloro-4-fluoro-phenylamino)-6-(4-imidazol-1-yl-benzylamino)-quinoline-3-carbonitrile] | 1300
N#Cc1cnc2ccc(NCc3ncc[nH]3)cc2c1Nc1ccc(F)c(Cl)c1 [Example 13, 4-(3-Chloro-4-fluoro-phenylamino)-6-[(1H-imidazol-2-ylmethyl)-amino]-quinoline-3-carbonitrile] | 30
N#Cc1cnc2ccc(NCc3cccc(N)c3)cc2c1Nc1ccc(F)c(Cl)c1 [Example 14, 6-(3-Amino-benzylamino)-4-(3-chloro-4-fluoro-phenylamino)-quinoline-3-carbonitrile] | 140
Cc1[nH]cnc1CNc1ccc2ncc(C#N)c(Nc3ccc(F)c(Cl)c3)c2c1 [Example 15, 4-(3-Chloro-4-fluoro-phenylamino)-6-[(5-methyl-3H-imidazol-4-ylmethyl)-amino]-quinoline-3-carbonitrile] | 15

Molecule | IC50 [nM]
CC(=O)Nc1ccc(CNc2ccc3ncc(C#N)c(Nc4ccc(F)c(Cl)c4)c3c2)cc1 [Example 16, N-(4-{[4-(3-Chloro-4-fluoro-phenylamino)-3-cyano-quinolin-6-ylamino]-methyl}-phenyl)-acetamide] | 227
N#Cc1cnc2ccc(NCc3ccc([N+](=O)[O-])cc3)cc2c1Nc1ccc(F)c(Cl)c1 [Example 17, 4-(3-Chloro-4-fluoro-phenylamino)-6-(4-nitro-benzylamino)-quinoline-3-carbonitrile] | 190
CS(=O)(=O)Nc1cccc(CNc2ccc3ncc(C#N)c(Nc4ccc(F)c(Cl)c4)c3c2)c1 [Example 18, N-(3-{[4-(3-Chloro-4-fluoro-phenylamino)-3-cyano-quinolin-6-ylamino]-methyl}-phenyl)-methanesulfonamide] | 280
N#Cc1ccc(CNc2ccc3ncc(C#N)c(Nc4ccc(F)c(Cl)c4)c3c2)cc1 [Example 19, 4-(3-Chloro-4-fluoro-phenylamino)-6-(4-cyano-benzylamino)-quinoline-3-carbonitrile] | 590
CN(C)c1ccc(CNc2ccc3ncc(C#N)c(Nc4ccc(F)c(Cl)c4)c3c2)c(F)c1C#N [Example 20, 4-(3-Chloro-4-fluoro-phenylamino)-6-(3-cyano-4-dimethylamino-2-fluoro-benzylamino)-quinoline-3-carbonitrile] | 610
N#Cc1ccccc1CNc1ccc2ncc(C#N)c(Nc3ccc(F)c(Cl)c3)c2c1 [Example 21, 4-(3-Chloro-4-fluoro-phenylamino)-6-(2-cyano-benzylamino)-quinoline-3-carbonitrile] | 130
N#Cc1cnc2ccc(NCc3nccn3CCN3CCOCC3)cc2c1Nc1ccc(F)c(Cl)c1 [Example 22, 4-(3-Chloro-4-fluoro-phenylamino)-6-{[1-(2-morpholin-4-yl-ethyl)-1H-imidazol-2-ylmethyl]-amino}-quinoline-3-carbonitrile] | 68
CCc1nc(C)c(CNc2ccc3ncc(C#N)c(Nc4ccc(F)c(Cl)c4)c3c2)[nH]1 [Example 23, 4-(3-Chloro-4-fluoro-phenylamino)-6-[(2-ethyl-5-methyl-3H-imidazol-4-ylmethyl)-amino]-quinoline-3-carbonitrile] | 640
COCCOc1ccc(CNc2ccc3ncc(C#N)c(Nc4ccc(F)c(Cl)c4)c3c2)cc1Br [Example 24, 6-[3-Bromo-4-(2-methoxy-ethoxy)-benzylamino]-4-(3-chloro-4-fluoro-phenylamino)-quinoline-3-carbonitrile] | 380
COCCOc1ccc(CNc2ccc3ncc(C#N)c(Nc4ccc(F)c(Cl)c4)c3c2)cc1C#N [Example 25, 4-(3-Chloro-4-fluoro-phenylamino)-6-[3-cyano-4-(2-methoxy-ethoxy)-benzylamino]-quinoline-3-carbonitrile] | 82
CC(C)(C)OC(=O)COc1ccc(CNc2ccc3ncc(C#N)c(Nc4ccc(F)c(Cl)c4)c3c2)cc1Br [Example 26, (2-Bromo-4-{[4-(3-chloro-4-fluoro-phenylamino)-3-cyano-quinolin-6-ylamino]-methyl}-phenoxy)-acetic acid tert-butyl ester] | > 40000
N#Cc1cnc2ccc(NCc3cc[nH]n3)cc2c1Nc1ccc(F)c(Cl)c1 [Example 27, 4-(3-Chloro-4-fluoro-phenylamino)-6-[(1H-pyrazol-3-ylmethyl)-amino]-quinoline-3-carbonitrile] | 74
COc1cc(NCc2cccnc2)cc2c(Nc3ccc(F)c(Cl)c3)c(C#N)cnc12 [Example 28, 4-(3-Chloro-4-fluoro-phenylamino)-8-methoxy-6-[(pyridin-3-ylmethyl)-amino]-quinoline-3-carbonitrile] | 1100
COc1cc(NCCN2CCOCC2)cc2c(Nc3ccc(F)c(Cl)c3)c(C#N)cnc12 [Example 29, 4-(3-Chloro-4-fluoro-phenylamino)-8-methoxy-6-(2-morpholin-4-yl-ethylamino)-quinoline-3-carbonitrile] | 5200
N#Cc1cnc2ccc(NCc3ccc[n+]([O-])c3)cc2c1Nc1ccc(F)c(Cl)c1 [Example 30, 4-(3-Chloro-4-fluoro-phenylamino)-6-[(1-oxy-pyridin-3-ylmethyl)-amino]-quinoline-3-carbonitrile] | 130
Cc1cc(CNc2ccc3ncc(C#N)c(Nc4ccc(F)c(Cl)c4)c3c2)n[nH]1 [Example 31, 4-(3-Chloro-4-fluoro-phenylamino)-6-[(5-methyl-1 H-pyrazol-3-ylmethyl)-amino]-quinoline-3-carbonitrile] | 110
